Measured values from publication PMC11061419, “Identification of novel small molecule inhibitors of twin arginine translocation (Tat) pathway and their effect on the control of Campylobacter jejuni in chickens” (Frontiers in Microbiology, 2024).
Values after ≈ are worked out from the molar mass of the structure shown. Values joined by “and” are separate entries in the source; they are usually repeats but may differ in a detail not shown here. Equal entries are not always repeated.

What was measured:
C. jejuni 81–176 = test: Copper sulfate sensitivity dose–response assay in vitro (MIC/MBC); type: cell-based, Campylobacter jejuni; settings: for MBC / MIC: Campylobacter jejuni, 0.5 mM CuSO4, head displaced; for MBC: read-out: MBC, C. jejuni (Table S5); for MIC: read-out: MIC, C. jejuni (Table S4); for C. jejuni 81–176 in vitro MBC: minimal bactericidal concentration in presence of 0.5 mM CuSO4; for C. jejuni 81–176 in vitro MIC: minimal bacteriostatic concentration in presence of 0.5 mM CuSO4
Protocol: (§1) In total, 19 SMs were two-fold serially diluted to obtain a final SM concentration ranging from 6.25 to 0.012 μg/mL. C. jejuni 81–176 was then treated with a determined concentration of SM, as described in the copper sensitivity assay. […] The lowest bactericidal SM concentration was considered the MBC (no increase in OD600 over time and no viable cells were recovered on agar plate after challenge) (N = 3 replicates per SM). […] However, these SMs were two-fold serially diluted to obtain a final SM concentration ranging from 5 μg to 0.0625 μg for testing (N = two independent experiments with four technical replicate for each SM).

[1] = system: Commensal/beneficial gut bacteria (n = 7); test: Activity spectrum against commensal/beneficial gut bacteria at 6.25 μg/mL; type: cell-based; settings: 6.25 μg/mL SM; for Commensal/beneficial gut bacteria inhibited at 6.25 μg/mL (species): Ef Enterococcus faecalis, Lb Levilactobacillus brevis, LGG Lacticaseibacillus rhamnosus GG
Protocol: A similar experiment was performed with seven commensal/beneficial gut bacteria to determine species specificity of these SMs. In brief, an overnight suspension was normalized at 0.05 OD600 using the appropriate medium and challenged with 6.25 μg/mL of SM. Details about the strains and their growing conditions are shown in Supplementary Table S1. Medium alone and 1% DMSO were used as controls (N = 3 replicates per SM).

[2] = system: C. jejuni (mixture of five strains) in chicken ceca; test: C. jejuni persistence in ceca of 5-week-old colonized chickens; type: in vivo; settings: for reduction in C. jejuni population per gram of cecum compared with the DMSO control group: 5-week-old chickens, oral twice a day for 5 days, approximately 0.225 mg of SM per kg body weight; for decrease of cecal C. jejuni colonization/load: 3 and 5-week-old chickens, 5-day treatment twice a day, 0.225 mg or 0.127 mg of SM per kg body weight
Protocol: Four SMs (T1, T2, T7, and T8) were selected from the initial list of eight SMs based on their low MBC in Caco2 cells (<5 μg SM/ml), low cytotoxicity indexes (<20% toxicity at 5 μg SM /ml), and their minimal effect on commensal bacterial species (less than two species inhibited by the SM out of the seven strains tested; Table 1). The antimicrobial efficacy of our SM was tested on 5-week-old chickens, to assess the clearance of C. jejuni load right before slaughter age. Overall, 5-week-old Campylobacter-free, i.e., specific pathogen-free [SPF] chickens were inoculated orally with a mixture of five C. jejuni strains (10^5 CFU/chicken, Supplementary Table S3). Rectal swabs were collected 1 day post-inoculation (DPI) to confirm C. jejuni colonization (CFU/g of feces) in birds. From 2 DPI to 7 DPI, groups of 4–5 chickens were treated orally twice a day with one of the four SMs (T1, T2, T7, or T8; approximately 0.225 mg of SM per kg body weight). Details of the treatment groups and the inoculum are shown in Supplementary Table S3.
For both experiments, C. jejuni colonized-chickens treated with 0.0001% DMSO and colonized chickens without additional carrier treatment (non-treated) were used as controls (n = 3–6 chicken per group). Details of the treatment groups and the inoculum are shown in Supplementary Table S3. Both 3 and 5-week-old chickens were euthanized at 7 DPI using carbon dioxide gas and ceca (cecal content and the pouch) and were aseptically collected. One of the ceca pairs was immediately stored at −80°C for microbiota studies. The other ceca were suspended in 1X PBS, homogenized, serially diluted, plated on MH media supplemented with Campylobacter Selective Supplement (CSS) agar plate, and incubated for 48 h at 42°C in microaerophilic conditions to determine C. jejuni load in the ceca (CFU/g of ceca).

Caco-2 cells = test: Cytotoxicity on Caco-2 colon epithelial cells (LDH assay); type: cell-based; settings: for cytotoxicity index on Caco-2 cells: 5 μg SM /ml, 24 h; for toxicity level to Caco-2 cells: 25 μg/mL or 50 μg/mL of SM for 24 h
Protocol: Cytotoxicity of the eight SMs (T1-T8) was tested on Caco-2 cells at 5, 25, and 50 μg/mL, as previously described ([Kumar et al., 2016]; [Deblais et al., 2019]). In brief, a 96-well plate seeded with approximately 1.4 × 10^5 Caco-2 cells/well in MEM medium was challenged with a final SM concentration of 5, 25, and 50 μg/mL. After 24 h of incubation at 37°C in a humidified 5% CO2 incubator, cytotoxic effects were determined using the PierceTM Lactate Dehydrogenase Cytotoxicity Assay Kit (Thermo Fisher Scientific). Cell death was measured based on the production of formazan (chromogenic dye), which can be read at OD570. Equal concentrations (5, 25, and 50 μg/mL) of kanamycin or chloramphenicol, 1% DMSO, and 10X lysis buffer were used as control. The cytotoxicity level was calculated according to the manufacturer’s instructions (N = two independent experiments with three technical replicate for each SM).

[3] = system: intracellular C. jejuni 81–176 in Caco-2 cells; test: Copper sulfate sensitivity dose–response assay in infected Caco-2 colon epithelial cells; type: cell-based, Campylobacter jejuni; settings: 0.5 mM CuSO4; for C. jejuni 81–176 MBC in Caco2 cells: infected Caco-2 cells, 24 h; for SM concentration that completely cleared intracellular C. jejuni 81–176 in Caco-2 cells (MBC in Caco2 cells): 24 h treatment
Protocol: The intracellular reduction in C. jejuni in the presence of a given SM (T1-T8) and 0.5 mM CuSO4 were evaluated using Caco-2 cells, as previously described ([Kumar et al., 2016]; [Deblais et al., 2019]). In brief, cells were infected for 2 h using a multiplicity of infection (MOI) of 100. Infected cells were treated with SM at a final concentration ranging between 5 and 0.315 μg/mL and incubated at 37°C for 24 h in a humidified 5% CO2 incubator. Following incubation, cells were washed once with 1X PBS, lysed with 0.1% Triton-100X, serially 10-fold diluted in 1X PBS, and plated on MH agar plate. Plates were incubated in microaerophilic conditions at 42°C for 24 h, to determine the intracellular survival. Cells not infected and not treated and cells infected and treated with 1% DMSO were used as controls (N = two independent experiments with four technical replicate for each SM).

C. jejuni Au-20 = test: Copper sulfate sensitivity dose–response assay in vitro (MIC/MBC); type: cell-based; settings: Campylobacter jejuni; for MIC: AU20, read-out: MIC, Au-20 (Table S4); for MBC: AU20, 0.5 mM CuSO4, read-out: MBC, Au-20 (Table S5)
Protocol: Campylobacter jejuni 81–176 was the primary model strain used for the selection of the potential Tat-dependent inhibitors by high-throughput screening. C. jejuni 81–176 is resistant to 0.5 and 1 mM CuSO4 (Supplementary Figure S1). C. jejuni 81–176 tatC knockout mutant (C. jejuni ΔtatC) was used to confirm the Tat-dependent inhibitory effect of the selected SM. C. jejuni ΔtatC is susceptible to 0.5 mM and higher of CuSO4 ([Rajashekara et al., 2009]). The specificity of the Tat-dependent inhibitors was also tested on 11 additional Campylobacter strains (C. coli ATCC33559 and 10 other C. jejuni strains isolated from chickens) and 7 commensal/beneficial bacteria (Supplementary Table S1). The […] (Au-13, Au-20, Au-38, Au-39, Au-47, Au-50, Au-24, Au-32, Au-44, and Au-45) were selected based on their single nucleotide polymorphism (SNP)-type and percent of prevalence in chickens ([Merchant-Patel et al., 2008]; [Kumar et al., 2016]). Additional details about the bacterial strains are shown in Supplementary Table S1.
as §1

[4] = system: Campylobacter spp. (12 strains); test: Activity spectrum against Campylobacter strains at 6.25 μg/mL with 0.5 mM CuSO4; type: cell-based, Campylobacter jejuni, Campylobacter coli; settings: 6.25 μg/mL SM

SMILES	MBC (C. jejuni 81–176)	MIC (C. jejuni 81–176)	C. jejuni 81–176 in vitro MBC (C. jejuni 81–176)	C. jejuni 81–176 in vitro MIC (C. jejuni 81–176)	Growth inhibition at 6.25 μg/mL, Commensal/beneficial gut bacteria (strains inhibited/tested) [1]	reduction in C. jejuni population per gram of cecum compared with the DMSO control group [2]	cytotoxicity index on Caco-2 cells (Caco-2 cells)	toxicity level to Caco-2 cells (Caco-2 cells)	C. jejuni 81–176 MBC in Caco2 cells [3]	MIC (C. jejuni Au-20)	MBC (C. jejuni Au-20)	Growth inhibition at 6.25 μg/mL, Campylobacter spp. (strains inhibited/tested) [4]	Commensal/beneficial gut bacteria inhibited at 6.25 μg/mL (species) [1]	decrease of cecal C. jejuni colonization/load [2]	SM concentration that completely cleared intracellular C. jejuni 81–176 in Caco-2 cells (MBC in Caco2 cells) [3]
CCCNC(=S)Nc1cc(OC)cc(OC)c1 [T1]	0.62 µg/mL (≈ 2.44 µM)	0.19 µg/mL (≈ 0.747 µM)	0.62 µg/mL	0.19 µg/mL	0/7	did not reduce	< 20%	36%	0.63 µg/mL	0.31 µg/mL (≈ 1.22 µM)	0.62 µg/mL (≈ 2.44 µM)	12/12	–	–	–
CC(C)(C)NC(=S)NNc1c(Cl)cncc1Cl [T2]	0.62 µg/mL (≈ 2.11 µM)	0.01 µg/mL (≈ 0.0341 µM)	0.62 µg/mL	0.01 µg/mL	2/7	1.2 log	< 20%	–	1.25 µg/mL	0.62 µg/mL (≈ 2.11 µM)	1.24 µg/mL (≈ 4.23 µM)	12/12	Lb and Ef	up to 1.2 log	< 5 µg/mL
CSc1ccccc1-c1nnc(NC(=O)Cc2ccccc2)o1 [T7]	0.16 µg/mL (≈ 0.492 µM)	0.02 µg/mL (≈ 0.0615 µM)	0.16 µg/mL	0.02 µg/mL	1/7	0.5 log	< 20%	–	2.5 µg/mL	0.16 µg/mL (≈ 0.492 µM)	0.32 µg/mL (≈ 0.983 µM)	12/12	LGG	up to 1.2 log	< 5 µg/mL
CCN(CC)/C(C)=N/C(=O)Nc1ccccc1 [T8]	0.12 µg/mL (≈ 0.514 µM)	0.08 µg/mL (≈ 0.343 µM)	0.12 µg/mL	0.08 µg/mL	2/7	0.5 log	< 20%	33%	5 µg/mL	0.25 µg/mL (≈ 1.07 µM)	0.25 µg/mL (≈ 1.07 µM)	12/12	Lb and Ef	–	< 5 µg/mL and 5 µg/mL
